# Measured values: patent US20090220516A1, “Neuroprotection of retinal ganglion cells” (priority 2005, published 2009)
# pEC50: −log10 of the molar value.
# Assays:
# [1] = molecular target: T1, rat P2X7 receptor (Rattus norvegicus, UniProt Q64663); details: cited from earlier work
# T1 sequence (Q64663 1-595): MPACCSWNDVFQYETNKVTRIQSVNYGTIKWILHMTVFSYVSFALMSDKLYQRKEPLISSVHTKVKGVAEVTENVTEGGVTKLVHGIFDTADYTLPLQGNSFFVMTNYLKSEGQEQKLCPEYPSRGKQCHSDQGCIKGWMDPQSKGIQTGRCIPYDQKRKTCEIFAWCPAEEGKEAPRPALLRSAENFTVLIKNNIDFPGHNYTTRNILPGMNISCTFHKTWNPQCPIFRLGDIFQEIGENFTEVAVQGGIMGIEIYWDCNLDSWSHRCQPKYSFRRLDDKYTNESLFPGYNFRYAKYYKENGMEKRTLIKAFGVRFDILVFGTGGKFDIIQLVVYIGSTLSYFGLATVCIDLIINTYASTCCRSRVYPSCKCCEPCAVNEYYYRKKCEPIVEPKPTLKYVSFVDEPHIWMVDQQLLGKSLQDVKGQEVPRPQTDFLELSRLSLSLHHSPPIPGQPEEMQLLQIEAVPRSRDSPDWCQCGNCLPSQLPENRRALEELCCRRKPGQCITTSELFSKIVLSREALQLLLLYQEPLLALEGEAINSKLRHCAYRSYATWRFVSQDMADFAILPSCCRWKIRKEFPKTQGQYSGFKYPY
# [2] = system: retinal ganglion cells; assay: Cell viability studies: labeled retinal ganglion cells surviving after 24 hrs in mixed retinal cultures; type: cell-based, rat; details: 300 uM ATP alone, 24 hrs
# Method: Pups PD2-6 from untimed pregnant Long-Evan rats (Jackson Laboratory Inc., Bar Harbor, Me.) were back-labeled by the injection of FluoroGold derivative aminostilbamidine (Molecular Probes, Eugene, Oreg.) based upon standard protocols. […] Using a Hamilton syringe affixed to a micromanipulator, a needle was inserted 0.8 mm lateral from the midline and 0.8 mm anterior to Bregma's line and a total of 2.5 μl dye was delivered to each side at a depth of 2 mm and 1 mm. The needle was retracted after a delay of 2 min to allow dye absorption and the wound was closed with 2-3 sutures. Preliminary examination of labeled retinal whole mounts confirmed an even distribution of dye, showing all cells were stained 2 days after injection, with no further increase in the number of labeled cells in subsequent days. Consequently, retinas containing labeled ganglion cells were dissociated 2-6 days after injection. Animals were sacrificed by i.p. injection of 50/5 mg/kg Ketamine/Xylazine followed by an overdose, in accordance with University of Pennsylvania IACUC approved protocols and the ARVO Statement on the Use of Animals in Ophthalmic and Vision Research.
# The retina was dissected from each globe, washed in sterile Hanks' balanced salt solution (HBSS, Gibco, Inc Invitrogen Corp., Carlsbad, Calif.), then incubated in HBSS containing activated papain (4.5 U/ml; Worthington Biochemical Corp., Lakewood, N.J.) for 12 minutes at 37° C. Retinas were washed twice and triturated 50 times with a 1-ml glass pipette to dissociate cells. Cells were plated onto twelve 12-mm coverslips previously coated with poly-L-lysine. […] Retinal cells were incubated at 37° C. with 5% CO2.
# Drugs were added to the culture medium at the time when cells were plated onto coverslips. […] All counts were performed in a masked fashion. In experiments involving antagonist pretreatment, drugs were added to the medium at the time of plating. After preincubation at 37° C., stock concentrations of BzATP were added directly to the cells to give the final concentration shown.
# Data are presented as mean±standard error of the mean. Significance was evaluated using a Student's unpaired t test, with a p value <0.05 signifying significance. For cell viability studies, the number of experiments, n, represents the number of coverslips from which 80 fields were measured and averaged. All values were normalized to the mean control level for that day's matched set of experiments to control for variation in plating efficiency.
# [3] = system: retina eyecup; assay: Pressure-triggered ATP release from the bovine retina eyecup; details: 30 μM NPPB, 15 minutes preincubation and in medium
# Excerpt: C. ATP release by increased extracellular pressure is inhibited by the general chloride channel blocker NPPB, indicating physiologic significance. […] The ATP levels were normalized with the non-pressure and non NPPB eyecup control levels (white bar). Bars represent the mean±standard error. Numbers indicates the number of retina eyecups per experiment. We performed ANOVA test (Dunnett post-test) to obtain the significant differences indicated by a * symbol (p<0.05) as significant difference with control and ** (p<0.05) as significant difference with the pressure challenged eyecups.
SMILES,pEC50 [1],effect on ganglion cell survival [2],effect on ATP release induced by 20 mm Hg rise in extracellular pressure [3]
Nc1ncnc2c1ncn2C1OC(COP(=O)(O)OP(=O)(O)OP(=O)(O)O)C(O)C1O (stereo not drawn) [ATP],3.52,small but significant increase in cell survival,–
"O=C(O)c1cc([N+](=O)[O-])ccc1NCCCc1ccccc1 [NPPB, 5-nitro-2-(3-phenylpropyl-amino)benzoic acid]",–,–,inhibits the ATP release
